In this assay the test system is mouse lung carcinoma cell line (3LL cells) and mouse pancreatic cancer cell line (PANC02 cells). The experiment in a line: Inhibition of macropinocytosis in cancer cells (TMR-dextran uptake). The class given is cell-based. As to conditions: in words, 3LL and PANC02 cells. The protocol: Therefore, this Pharmacological Test evaluated the inhibitory effect of the compounds of the present invention on macropinocytosis in a mouse lung carcinoma cell line (3LL cells) and a mouse pancreatic cancer cell line (PANC02 cells) as a target. Specifically, 150 μL of mouse lung carcinoma cell line (3LL) or mouse pancreatic cancer cell line (PANC02) (4×10^4 cells) was seeded on the glass portion of fibronectin-coated glass-bottom culture dishes. After 16-hour culture at 37° C., the medium was changed to DMEM (serum free), and cultured for another 24 hours to allow the cells to be serum-starved. Subsequently, the medium was changed to 2 mL of serum-free medium containing DMSO alone (control) or DMSO in which each test compound was dissolved, followed by culture for 1 hour for pretreatment. The final concentration of DMSO was adjusted to 0.2 mass %.
DMSO alone (control) or DMSO in which a predetermined concentration of each test compound was dissolved was added in the same manner as above to TMR-dextran (final concentration: 500 μg/mL)-containing DMEM (with 10 mass % FBS), and the thus-obtained medium (180 μL) was added to the cancer cells pretreated as above, followed by incubation at 37° C. for 1 hour. […] The macropinocytosis activity was measured based on the number of TMR-dextran spots per cell. […]

Take `COC(=O)c1cc(S(=O)(=O)N2CCCC2)cn1CC(=O)c1ccc(-c2cccc(C(F)(F)F)c2)cc1` [RT-22, methyl 1-(2-oxo-2-(3′-(trifluoromethyl)-[1,1′-biphenyl]-4-yl)ethyl)-4-(pyrrolidin-1-yl-sulfonyl)-1H-pyrrole-2-carboxylate]: the “macropinocytosis activity in cancer cells” value is on record as “inhibitory effect on macropinocytosis activity”.

(Values after patent publication US20220017486A1, “DOCK1-INHIBITING COMPOUND AND USE THEREOF” (KYUSHU UNIVERSITY, NATIONAL UNIVERSITY CORPORATION, priority 2018, published 2022).)
